Data from PMC4744035, “In Vivo, In Vitro, and In Silico Characterization of Peptoids as Antimicrobial Agents” (PLoS ONE, 2016).
In brackets after ≈: the same amount, converted by molar mass. Read-outs that look alike come from different tables or passages of the source. Numbered stars: 1 amine (or outer) side, 2 acyl side, 3 side chain; on linkers, the order of the positions; unused ones are H or OH. Square brackets hold non-standard residues; d marks the D form. Peptide text beside a SMILES is read from it. X2 = C[C@@H](c1cccc2ccccc12)N(CC(=O)[*:2])[*:1]; Nspe = C[C@H](NCC(=O)O)c1ccccc1; Nlys = NCCCCNCC(=O)O

Assays:
[1] = test system: E. coli ATCC 35218; assay type: cell-based
Experimental: MICs against B. subtilis and E. coli screening bacterial strains were determined using serial dilution in 96-well microtiter plates in accordance with CLSI M7-A6 protocols. Briefly, peptoid solution in cation-adjusted Mueller-Hinton broth was prepared by 2:1 serial dilution with a total volume of 50 µL per well. In experimental wells, 50 µL of bacterial inoculums (1 x 10^6 CFU/mL) were added to the peptoid solutions. Positive controls consisted of 50 µL inoculums added to 50 µL cation-adjusted Mueller-Hinton broth containing no peptoid, while negative controls contained only cation-adjusted Mueller-Hinton broth. […] Experiments were reproducible among three independent replicates, each consisting of two parallel trials.

[2] = test system: erythrocytes; test: Hemolytic activity (HD10/HD50); assay type: cell-based
Excerpt: Table 1 Characteristics of antimicrobial peptoids, screened for activity against B. subtilis and E. coli bacterial strains. | column: HD10 / HD50

[3] = test system: E. cloacae 218R Class C β-lactamase; test: microbe, parasite or virus in culture
Experimental: (§1) The MICs of test agents were measured using a modified broth micro-dilution method in Difco Mueller Hinton medium, on a panel of bacterial pathogens that were both susceptible and resistant to common antibiotics (S1 File). Briefly, serial dilutions were performed in 0.01% acetic acid containing 0.2% bovine serum albumin at 10-fold the desired final concentration. Ten μL of the 10-fold concentrated test reagents were added to each well of a 96-well polypropylene microtitre plate containing 90 μL of Mueller Hinton media per well. Bacteria were added to the plate from an overnight culture at a final concentration of 2–7 x 10^5 CFU/mL and incubated overnight at 37°C. The MIC is defined as the concentration at which no growth was observed.
(§2) Screening of peptoid antimicrobial activity against a panel of multidrug resistant superbugs was done according to the protocol described in the manuscript. The bacterial strains used in this panel included; P. aeruginosa PAO1 strain H103 [1], P. maltophilia ATCC#13637, S. aureus ATCC#25923 [1], E. faecalis ATCC#29212 [2], and E. cloacae 218R, constitutively expressing Class C chromosomal β-lactamase, were from the Hancock lab strains collection. An MRSA clinical isolate was kindly provided by Anthony Chow (Vancouver General Hospital, Vancouver, Canada). Two Klebsiella pneumoniae and two E. coli clinical isolates expressing extended spectrum β-lactamases (ESBL) were kindly provided by George Zhanel (Health Sciences Centre, Winnipeg, Canada). Vancomycin-resistant clinical isolates of Enterococcus faecalis and E. faecium were obtained from Ana M. Paccagnella (BC Centre for Disease Control, Vancouver, Canada). Three clinical isolates (#9, #198 and #213) of multi-drug resistant P. aeruginosa, were kindly provided by Carlos Kiffer (University of São Paulo, Brazil). […] Three P. aeruginosa clinical isolates of the Liverpool epidemic strain (LES) (H1027, H1030 and LES400) were all kindly provided by Craig Winstanley (University of Liverpool, UK). […] All tested bacterial strains were categorized as biohazard level 2 pathogens.

[4] = test system: E. coli 63103 (ESBL); test: microbe, parasite or virus in culture
Experimental: as §1, §2

[5] = test system: E. coli 64771 (ESBL); test: microbe, parasite or virus in culture
Experimental: as §1, §2

[6] = test system: E. faecalis ATCC29212; test: microbe, parasite or virus in culture; details: ATCC29212
Experimental: as §1, §2

[7] = test system: E. faecalis F43559 (VRE); test: microbe, parasite or virus in culture
Experimental: as §1, §2

[8] = test system: E. faecalis W61950 (VRE); test: microbe, parasite or virus in culture
Experimental: as §1, §2

[9] = test system: E. faecium T62764 (VRE); test: microbe, parasite or virus in culture
Experimental: as §1, §2

[10] = test system: E. faecium mic80 (VRE); test: microbe, parasite or virus in culture
Experimental: as §1, §2

[11] = test system: K. pneumonia 61962 (ESBL); test: microbe, parasite or virus in culture
Experimental: as §1, §2

[12] = test system: K. pneumonia 63575 (ESBL); test: microbe, parasite or virus in culture
Experimental: as §1, §2

[13] = test system: P. aeruginosa 198 (MDR); test: microbe, parasite or virus in culture
Experimental: as §1, §2

[14] = test system: P. aeruginosa 213 (MDR); test: microbe, parasite or virus in culture
Experimental: as §1, §2

[15] = test system: P. aeruginosa 9 (MDR); test: microbe, parasite or virus in culture
Experimental: as §1, §2

[16] = test system: P. aeruginosa H1027 (MDR); test: microbe, parasite or virus in culture
Experimental: as §1, §2

[17] = test system: P. aeruginosa H103 (wild type); test: microbe, parasite or virus in culture
Experimental: as §1, §2

[18] = test system: P. aeruginosa H1030 (MDR); test: microbe, parasite or virus in culture; details: P. aeruginosa H1030 (MDR)
Experimental: as §1, §2

[19] = test system: P. aeruginosa LES400 (MDR); test: microbe, parasite or virus in culture
Experimental: as §1, §2

[20] = test system: P. maltophilia ATCC13637; test: microbe, parasite or virus in culture; details: ATCC13637
Experimental: as §1, §2

[21] = test system: S. aureus ATCC25923; test: microbe, parasite or virus in culture; details: ATCC25923
Experimental: as §1, §2

[22] = test system: S. aureus C623 (MRSA); test: microbe, parasite or virus in culture
Experimental: as §1, §2

SMILES	MIC ([3]; 218R Class C β-lactamase) [µg/mL]	MIC ([4]; 63103 (ESBL)) [µg/mL]	MIC ([5]; 64771 (ESBL)) [µg/mL]	MIC [6] [µg/mL]	MIC ([7]; F43559 (VRE)) [µg/mL]	MIC ([8]; W61950 (VRE)) [µg/mL]	MIC ([9]; T62764 (VRE)) [µg/mL]	MIC ([10]; mic80 (VRE)) [µg/mL]	MIC [11] [µg/mL]	MIC [12] [µg/mL]	MIC ([13]; 198 (MDR)) [µg/mL]	MIC ([14]; 213 (MDR)) [µg/mL]	MIC ([15]; 9 (MDR)) [µg/mL]	MIC ([16]; H1027 (MDR)) [µg/mL]	MIC ([17]; H103 (wild type)) [µg/mL]	MIC [18] [µg/mL]	MIC ([19]; LES400 (MDR)) [µg/mL]	MIC [20] [µg/mL]	MIC [21] [µg/mL]	MIC ([22]; C623) [µg/mL]	other results
C[C@@H](c1ccccc1)N(CC(N)=O)C(=O)CN(C(=O)CN(CCCCN)C(=O)CN(Cc1ccccc1)C(=O)CN(Cc1ccccc1)C(=O)CN(CCCCN)C(=O)CN(C(=O)CN(C(=O)CN(CCCCN)C(=O)CN(Cc1ccccc1)C(=O)CN(Cc1ccccc1)C(=O)CNCCCCN)[C@@H](C)c1ccccc1)[C@@H](C)c1ccccc1)[C@@H](C)c1ccccc1 [1-Npm2,3,8,9, H-(NLys-Npm-Npm-NLys-Nspe-Nspe)2-NH2]	8 (≈ 4.54 µM)	8 (≈ 4.54 µM)	4 (≈ 2.27 µM)	4 (≈ 2.27 µM)	8 (≈ 4.54 µM)	8 (≈ 4.54 µM)	1 (≈ 0.567 µM)	4 (≈ 2.27 µM)	32 (≈ 18.1 µM)	16 (≈ 9.07 µM)	8 (≈ 4.54 µM)	4 (≈ 2.27 µM)	64 (≈ 36.3 µM)	2 (≈ 1.13 µM)	4 (≈ 2.27 µM)	16 (≈ 9.07 µM)	4 (≈ 2.27 µM)	1 (≈ 0.567 µM)	2 (≈ 1.13 µM)	2 (≈ 1.13 µM)	MIC E. coli [1]: 6.3 µM (≈ 11.1 µg/mL); HD10 (hemolytic activity) [2]: 39; HD50 (hemolytic activity) [2]: > 200
C[C@@H](c1ccccc1)N(CC(=O)N(CCCCN)CC(=O)N(CC(=O)N(CC(=O)N(CCCCN)CC(=O)N(CC(=O)N(CC(=O)N(CCCCN)CC(=O)N(CC(=O)N(CC(N)=O)[C@@H](C)c1cccc2ccccc12)[C@@H](C)c1ccccc1)[C@@H](C)c1ccccc1)[C@@H](C)c1ccccc1)[C@@H](C)c1cccc2ccccc12)[C@@H](C)c1ccccc1)C(=O)CN(C(=O)CNCCCCN)[C@@H](C)c1ccccc1 [1-Nsna6,12, H-(NLys-Nspe-Nspe-NLys-Nspe-Nsna)2-NH2] (H-[Nlys][Nspe][Nspe][Nlys][Nspe][X2][Nlys][Nspe][Nspe][Nlys][Nspe][X2]-NH2)	32 (≈ 16.7 µM)	16 (≈ 8.34 µM)	8 (≈ 4.17 µM)	4 (≈ 2.08 µM)	8 (≈ 4.17 µM)	16 (≈ 8.34 µM)	2 (≈ 1.04 µM)	4 (≈ 2.08 µM)	64 (≈ 33.3 µM)	32 (≈ 16.7 µM)	16 (≈ 8.34 µM)	8 (≈ 4.17 µM)	128 (≈ 66.7 µM)	2 (≈ 1.04 µM)	4 (≈ 2.08 µM)	32 (≈ 16.7 µM)	8 (≈ 4.17 µM)	1 (≈ 0.521 µM)	4 (≈ 2.08 µM)	4 (≈ 2.08 µM)	–
CC(C)(O/N=C(\C(=O)N[C@@H]1C(=O)N2C(C(=O)[O-])=C(C[n+]3ccccc3)CS[C@H]12)c1csc(N)n1)C(=O)O [Ceftazidime, reference compound]	–	–	–	–	–	–	–	–	–	–	–	–	–	–	–	–	–	–	–	–	MIC ([3]; Enterobacter cloacae): 32 µg/mL (≈ 58.5 µM); MIC ([4]; Escherichia coli): 128 µg/mL (≈ 234 µM); MIC ([5]; Escherichia coli): > 128 µg/mL; MIC ([6]; Enterococcus faecalis): 128 µg/mL (≈ 234 µM); MIC ([7]; Enterococcus faecalis, VRE): > 128 µg/mL; MIC ([8]; Enterococcus faecalis, VRE): > 128 µg/mL; MIC ([9]; Enterococcus faecium, VRE): > 128 µg/mL; MIC ([10]; Enterococcus faecium, VRE): > 128 µg/mL; MIC ([11]; Klebsiella pneumoniae): > 128 µg/mL; MIC ([12]; Klebsiella pneumoniae): > 128 µg/mL; MIC ([13]; Pseudomonas aeruginosa): 128 µg/mL (≈ 234 µM); MIC ([14]; Pseudomonas aeruginosa): > 128 µg/mL; MIC ([15]; Pseudomonas aeruginosa): > 128 µg/mL; MIC ([16]; Pseudomonas aeruginosa): 128 µg/mL (≈ 234 µM); MIC ([17]; Pseudomonas aeruginosa): 2 µg/mL (≈ 3.66 µM); MIC ([19]; Pseudomonas aeruginosa): 32 µg/mL (≈ 58.5 µM); MIC ([20]; Stenotrophomonas maltophilia): 0.3 µg/mL (≈ 0.549 µM); MIC ([21]; Staphylococcus aureus): 16 µg/mL (≈ 29.3 µM); MIC ([22]; Staphylococcus aureus, MRSA): 64 µg/mL (≈ 117 µM)
